This passage reports EC50 and Emax results from patent US9453038B2, “Glucokinase activator compounds, compositions containing such compounds, and methods of treatment” (Merck Sharp & Dohme Corp., priority 2012, dated 2016).

Where two headings read alike, the source gives them in different places.

In general, EC50 refers to the concentration needed to bring the measured effect to its halfway point. One may read the Emax as the size of the effect at its maximum, as opposed to the concentration needed.

This test deals with Recombinant human liver glucokinase (FLAG fusion protein) (Homo sapiens (Human), UniProt P35557). The test can be described thus: glucokinase (GK) activation assay, Thio-NADH formation coupled to G6PDH, absorbance at 405 nm. It counts as biochemical. The conditions noted are these: 2.5 mM Glu; for EC50: 30° C.; for Emax: OD value of DMSO control regarded as 100%. An excerpt: The glucokinase activity can, for instance, be determined without directly measuring glucose-6-phosphate by measuring the amount of Thio-NADH generated during the production of phosphogluconolactone from glucose-6-phosphate by a reporter enzyme glucose-6-phosphate dehydrogenase.
Chain of Recombinant human liver glucokinase (FLAG fusion protein) (P35557 other isoform, or with tags, fused parts or gaps): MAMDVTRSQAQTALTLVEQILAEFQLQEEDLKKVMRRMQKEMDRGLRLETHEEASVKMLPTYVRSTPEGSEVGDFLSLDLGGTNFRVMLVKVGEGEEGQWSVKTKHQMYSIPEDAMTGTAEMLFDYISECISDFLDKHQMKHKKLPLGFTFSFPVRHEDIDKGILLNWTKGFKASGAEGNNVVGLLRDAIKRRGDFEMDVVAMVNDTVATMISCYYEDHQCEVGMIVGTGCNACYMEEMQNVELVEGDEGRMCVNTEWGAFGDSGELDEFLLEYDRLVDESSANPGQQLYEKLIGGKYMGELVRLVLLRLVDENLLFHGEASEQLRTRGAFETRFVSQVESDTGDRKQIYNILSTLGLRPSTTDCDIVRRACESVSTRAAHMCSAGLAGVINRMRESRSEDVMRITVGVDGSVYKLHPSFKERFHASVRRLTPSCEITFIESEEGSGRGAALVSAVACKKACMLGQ
To test the exemplified compounds, the following assay was employed. Recombinant human liver glucokinase was expressed as a FLAG fusion protein in E. coli, and purified on ANTIFLAG M2 AFFINITY GEL (Sigma). The assay was carried out at 30° C. in a 96-well plate. In the plate was distributed 69 μl each of assay buffer (25 mM Hepes Buffer: pH=7.2, 2 mM MgCl2, 1 mM ATP, 0.5 mM TNAD, 1 mM dithiothreitol), to which was added 1 μl of a DMSO solution of the compound or DMSO as control. Then, 20 μl of pre-ice-cooled enzyme mixture (FLAG-GK, 20 U/ml G6PDH) was distributed thereto, to which was added 10 μl of 25 mM glucose as substrate to initiate the reaction (final glucose concentration=2.5 mM). After starting the reaction, the absorbance at 405 nm was measured every 30 seconds for 10 minutes to evaluate the compound based on the initial increase for 5 minutes. FLAG-GK was added so that the increase of absorbance after 5 minutes fell between 0.05 to 0.1 in the presence of 1% DMSO.
The OD values of the respective compounds were measured in the respective concentrations, wherein the OD value of DMSO as control is regarded as 100%. From the OD values at the respective concentrations, Emax (%, 2.5 mM Glu) and EC50 (nM, 2.5 mM Glu) were calculated and used as indicators of the GK activation capability of the compounds. According to the above assay, the GK activation capability of the exemplified compounds of the present invention was determined. […] Where different enantiomers of the same compound were tested, two numbers are provided. Where 3 numbers are provided, for example, Ex. #30, data for the racemic form is also shown.

As to `CCS(=O)(=O)c1ccc(Oc2cc3cc(-c4ccc(CCC(=O)OC)cn4)[nH]c3cc2C2CCC(=O)N2C)cc1` (stereo not drawn) [Example 1, METHYL 3-(6-{5-[4-(ETHYLSULFONYL)PHENOXY]-6-(1-METHYL-5-OXOPYRROLIDIN-2-YL)-1H-INDOL-2-YL}PYRIDIN-3-YL)PROPANOATE], the EC50 stood at 1.9 nM. Under “read-out: Emax”, the Emax came to 624%.
For `CCS(=O)(=O)c1ccc(Oc2cc3cc(-c4ccc(CCC(=O)O)cn4)[nH]c3cc2C2CCC(=O)N2C)cc1` (stereo not drawn) [Example 2, 3-(6-{5-[4-(ETHYLSULFONYL)PHENOXY]-6-(1-METHYL-5-OXOPYRROLIDIN-2-YL)-1H-INDOL-2-YL}PYRIDIN-3-YL)PROPANOIC ACID], the EC50 amounted to 53.4 nM. Moreover, where the note is “read-out: Emax”, the Emax turned out to be 652%.
For `CCS(=O)(=O)c1ccc(Oc2cc3cc(-c4ccc(C(F)(F)F)cn4)[nH]c3cc2C2CCC(=O)N2CC(=O)O)cc1` (stereo not drawn) [Example 3, (2-{5-[4-(ETHYLSULFONYL)PHENOXY]-2-[5-(TRIFLUOROMETHYL)PYRIDIN-2-YL]-1H-INDOL-6-YL}-5-OXOPYRROLIDIN-1-YL)ACETIC ACID], the EC50 was determined as 797 nM. Besides, the Emax (read-out: Emax) came out at 628%.
`COC(=O)CCc1ccc(Oc2cc3cc(-c4ccc(C(F)(F)F)cn4)[nH]c3cc2C2CCC(=O)N2C)cc1` (stereo not drawn) [Example 4, METHYL 3-[4-({6-(1-METHYL-5-OXOPYRROLIDIN-2-YL)-2-[5-(TRIFLUORO-METHYL)PYRIDIN-2-YL]-1H-INDOL-5-YL}OXY)PHENYL]PROPIONATE]: the Emax was 453.8%. Moreover, the Emax (read-out: Emax) is 455%.
For `CS(=O)(=O)c1ccc(Oc2cc3cc(-c4ccc(CCC(=O)O)cn4)[nH]c3cc2Oc2ccccc2F)cc1` [Example 7, 3-(6-{6-(2-FLUOROPHENOXY)-5-[4-(METHYLSULFONYL)PHENOXY]-1H-INDOL-2-YL}PYRIDIN-3-YL)PROPANOIC ACID], the EC50 was 774 nM. In addition, the Emax (read-out: Emax) is 15.7%.
Regarding `CN1C(=O)CCC1c1cc2[nH]c(-c3ccc(C(=O)NCCC(=O)O)cn3)cc2cc1Oc1ccc(S(C)(=O)=O)nc1` (stereo not drawn) [Example 8, N-({6-[6-(1-METHYL-5-OXOPYRROLIDIN-2-YL)-5-{[6-(METHYL-SULFONYL)PYRIDIN-3-YL]OXY}-1H-INDOL-2-YL]PYRIDIN-3-YL}-CARBONYL)-β-ALANINE], the EC50 was found to be 116 nM. Also, the Emax (read-out: Emax) amounted to 501%.
Consider `CS(=O)(=O)c1ccc(Oc2cc3cc(-c4ccc(CCC(=O)O)cn4)[nH]c3nc2CN2CCCC2=O)cn1` [Example 9, 3-[6-(5-{[6-(METHYLSULFONYL)PYRIDIN-3-YL]OXY}-6-[(2-OXOPYRROLIDIN-1-YL)METHYL]-1H-PYRROLO[2,3-B]PYRIDIN-2-YL)PYRIDIN-3-YL]PROPANOIC ACID], for which the EC50 came to 533 nM.
Consider `COC(=O)CCc1ccc(-c2cc3cc(Oc4ccc(C(=O)N5CCC5)nc4)c(C4CCCN4C(C)=O)cc3[nH]2)nc1` (stereo not drawn) [Example 10, METHYL 3-{6-[6-(1-ACETYLPYRROLIDIN-2-YL)-5-{[6-(AZETIDIN-1-YLCARBONYL)PYRIDIN-3-YL]OXY}-1H-INDOL-2-YL]PYRIDIN-3-YL}PROPANOATE], for which the EC50 was 13.9 nM. The Emax (read-out: Emax) came out at 419%.
On the same counts, the results for `CC(=O)N1CCCC1c1cc2[nH]c(-c3ccc(CCC(=O)O)cn3)cc2cc1Oc1ccc(C(=O)N2CCC2)nc1` (stereo not drawn) [Example 11, 3-{6-[6-(1-ACETYLPYRROLIDIN-2-YL)-5-{[6-(AZETIDIN-1-YLCARBONYL)PYRIDIN-3-YL]OXY}-1H-INDOL-2-YL]PYRIDIN-3-YL}PROPANOIC ACID] are 187 nM and 410%.
As to `CCS(=O)(=O)c1ccc(Oc2cc3cc(-c4ccc(P(C)(=O)O)cn4)[nH]c3cc2C2CCC(=O)N2C)cc1` (stereo not drawn) [Example 12, (6-(5-(4-(ETHYLSULFONYL)PHENOXY)-6-(1-METHYL-5-OXOPYRROLIDIN-2-YL)-1H-INDOL-2-YL)PYRIDIN-3-YL)(METHYL)PHOSPHINIC ACID], the EC50 was 53.6 nM. Besides, under “read-out: Emax”, the maximal effect (Emax) came out at 614%.
On the same counts, the results for `CN1C(=O)CCC1c1cc2[nH]c(-c3ccc(CC(C)(C)C(=O)O)cn3)cc2cc1Oc1ccc(S(C)(=O)=O)nc1` (stereo not drawn) [Example 17, 2,2-dimethyl-3-(6-(6-(1-methyl-5-oxopyrrolidin-2-yl)-5-((6-(methylsulfonyl)pyridin-3-yl)oxy)-1H-indol-2-yl)pyridin-3-yl)propanoic acid] are 108 nM and 643%.
In the same order, the values of `CN1C(=O)CCC1c1cc2[nH]c(-c3ccc(OCC(=O)O)cn3)cc2cc1Oc1ccc(S(C)(=O)=O)nc1` (stereo not drawn) [Example 18, 2-((6-(6-(1-methyl-5-oxopyrrolidin-2-yl)-5-((6-(methylsulfonyl)pyridin-3-yl)oxy)-1H-indol-2-yl)pyridin-3-yl)oxy)acetic acid] are 81 nM and 612%.
On to `COCc1ccc(Oc2cc3cc(-c4ccc(CCC(=O)O)cn4)[nH]c3cc2C2CCC(=O)N2C)cn1` (stereo not drawn) [Example 19, 3-(6-(5-((6-(methoxymethyl)pyridin-3-yl)oxy)-6-(1-methyl-5-oxopyrrolidin-2-yl)-1H-indol-2-yl)pyridin-3-yl)propanoic acid], for which the EC50 stood at 71.8 nM. Besides, the Emax (read-out: Emax) was determined as 431%.
In the case of `CN1C(=O)CCC1c1cc2[nH]c(-c3ccc(C(F)(F)F)cn3)cc2cc1Oc1ccc(CC(=O)O)cc1` (stereo not drawn) [Example 20, 2-(4-((6-(1-methyl-5-oxopyrrolidin-2-yl)-2-(5-(trifluoromethyl)pyridin-2-yl)-1H-indol-5-yl)oxy)phenyl)acetic acid], the EC50 is 63.9 nM. The Emax (read-out: Emax) came out at 521%.
On the same counts, the results for `CN1C(=O)CCC1c1cc2[nH]c(-c3cnccn3)cc2cc1Oc1ccc(CCC(=O)O)cc1` (stereo not drawn) [Example 21, 3-(4-((6-(1-methyl-5-oxopyrrolidin-2-yl)-2-(pyrazin-2-yl)-1H-indol-5-yl)oxy)phenyl)propanoic acid] are 39.1 nM and 628%.
For the molecule `CN1C(=O)CCC1c1cc2[nH]c(-c3ccccc3)cc2cc1Oc1ccc(CCC(=O)O)cc1` (stereo not drawn) [Example 22, 3-(4-((6-(1-methyl-5-oxopyrrolidin-2-yl)-2-phenyl-1H-indol-5-yl)oxy)phenyl)propanoic acid], the EC50 came out at 456 nM. The Emax (read-out: Emax) worked out at 410%.
As to `COC(=O)CCc1ccc(Oc2cc3cc(-c4cnccn4)[nH]c3cc2C2CCC(=O)N2C)cc1` (stereo not drawn) [Example 23, methyl 3-(4-((6-(1-methyl-5-oxopyrrolidin-2-yl)-2-(pyrazin-2-yl)-1H-indol-5-yl)oxy)phenyl)propanoate], the EC50 came to 2.1 nM. For the same molecule, the Emax (read-out: Emax) worked out at 574%.
Regarding `COC(=O)Cc1ccc(Oc2cc3cc(-c4ccccn4)[nH]c3cc2C2CCC(=O)N2C)cc1` (stereo not drawn) [Example 25, methyl 2-(4-((6-(1-methyl-5-oxopyrrolidin-2-yl)-2-(pyridin-2-yl)-1H-indol-5-yl)oxy)phenyl)acetate], the EC50 was determined as 21 nM. The Emax (read-out: Emax) amounted to 649%.
Take `COC(=O)CCc1ccc(Oc2cc3cc(-c4ccccn4)[nH]c3cc2C2CCC(=O)N2C)cc1` (stereo not drawn) [Example 26, methyl 3-(4-((6-(1-methyl-5-oxopyrrolidin-2-yl)-2-(pyridin-2-yl)-1H-indol-5-yl)oxy)phenyl)propanoate]: the EC50 was 4.3 nM. Also, the Emax (read-out: Emax) came to 545%.
As for `CN1C(=O)CCC1c1cc2[nH]c(-c3ccccn3)cc2cc1Oc1ccc(CC(=O)O)cc1` (stereo not drawn) [Example 27, 2-(4-((6-(1-methyl-5-oxopyrrolidin-2-yl)-2-(pyridin-2-yl)-1H-indol-5-yl)oxy)phenyl)acetic acid], the EC50 was 23.8 nM. Besides, for the setting “read-out: Emax”, the Emax is 630%.
Take `CN1C(=O)CCC1c1cc2[nH]c(-c3nc(CC(=O)O)c(Cl)s3)cc2cc1Oc1ccc(S(C)(=O)=O)nc1` (stereo not drawn) [Example 30, 2-(5-chloro-2-(6-(1-methyl-5-oxopyrrolidin-2-yl)-5-((6-(methylsulfonyl)pyridin-3-yl)oxy)-1H-indol-2-yl)thiazol-4-yl)acetic acid]: the EC50 worked out at 49.1 nM. Moreover, for the setting “read-out: Emax”, the maximum response (Emax) was determined as 506%.
On to `CN1C(=O)CCC1c1cc2[nH]c(-c3ncc(CCC(=O)O)s3)cc2cc1Oc1ccc(S(C)(=O)=O)nc1` (stereo not drawn) [Example 31, 3-(2-(6-(1-methyl-5-oxopyrrolidin-2-yl)-5-((6-(methylsulfonyl)pyridin-3-yl)oxy)-1H-indol-2-yl)thiazol-5-yl)propanoic acid], for which the EC50 amounted to 68.8 nM. In addition, the Emax (read-out: Emax) was determined as 599%.
Consider `COC(=O)Cc1csc(-c2cc3cc(Oc4ccc(S(C)(=O)=O)cc4)c(C4CCC(=O)N4C)cc3[nH]2)n1` (stereo not drawn) [Example 32, methyl 2-(2-(6-(1-methyl-5-oxopyrrolidin-2-yl)-5-(4-(methylsulfonyl)phenoxy)-1H-indol-2-yl)thiazol-4-yl)acetate], for which the EC50 is 65.1 nM. For the setting “read-out: Emax”, the Emax came to 566%.
